Measured values published in patent US20260062443A1 (ALEXION PHARMACEUTICALS, INC., priority 2022, published 2026).

Molecular target: T1, Human complement C1s enzyme (Homo sapiens, UniProt P09871)
T1 sequence (P09871 438-688 limits assumed): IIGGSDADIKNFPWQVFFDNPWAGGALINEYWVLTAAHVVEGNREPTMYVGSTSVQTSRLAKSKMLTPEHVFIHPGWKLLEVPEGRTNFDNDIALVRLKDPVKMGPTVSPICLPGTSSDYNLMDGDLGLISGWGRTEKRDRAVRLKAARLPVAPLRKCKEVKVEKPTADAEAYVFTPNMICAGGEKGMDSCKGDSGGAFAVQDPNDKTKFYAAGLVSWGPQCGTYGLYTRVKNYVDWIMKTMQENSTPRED
T1 sequence (P09871 16-437 partner limits assumed): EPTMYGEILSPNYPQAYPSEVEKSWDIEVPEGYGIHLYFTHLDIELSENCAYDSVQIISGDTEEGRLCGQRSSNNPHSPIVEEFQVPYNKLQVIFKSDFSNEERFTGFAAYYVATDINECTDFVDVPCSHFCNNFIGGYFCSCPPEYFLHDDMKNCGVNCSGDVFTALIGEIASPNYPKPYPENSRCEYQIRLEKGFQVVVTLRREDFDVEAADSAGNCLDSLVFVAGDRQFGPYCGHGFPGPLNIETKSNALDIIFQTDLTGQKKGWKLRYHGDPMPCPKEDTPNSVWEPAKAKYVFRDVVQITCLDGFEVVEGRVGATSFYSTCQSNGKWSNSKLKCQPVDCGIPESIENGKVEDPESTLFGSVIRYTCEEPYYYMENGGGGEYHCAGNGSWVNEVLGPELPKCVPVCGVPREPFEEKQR
Assay: Human C1s enzyme assay
Assay type: biochemical
Conditions: human complement C1s enzyme 1.16 nM, substrate Z-L-Lys-SBzl 100 μM, 5 min preincubation; read-out: IC50 (Stars), C1s Inhibiting Activity
Summary of the method: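 Serum-purified human C1s (1.16 nM final) preincubated 5 min at room temperature with compound in 50 mM Tris, 1 M NaCl, pH 7.5. Z-L-Lys-SBzl and DTNB added at 100 μM each; A405 followed every 30 s for 30 min, and IC50 obtained by nonlinear regression of reaction rates.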

SMILES: CN1CCc2cc(CNC(=O)[C@@H]3C[C@@H](OC(F)F)CN3C(=O)CNC(=O)c3ccc4c(c3)Oc3ccccc3S4)sc2C1 [Compound 346, (2S,4R)-4-(difluoromethoxy)-N-((6-methyl-4,5,6,7-tetrahydrothieno[2,3-c]pyridin-2-yl)methyl)-1-((phenoxathiine-3-carbonyl)glycyl) pyrrolidine-2-carboxamide]
- IC50: > 1000 nM

SMILES: O=C(NCC(=O)N1CC2(C[C@H]1C(=O)NCc1cc3cccnc3[nH]1)OCCO2)c1ccc2c(c1)-c1ccccc1C2(F)F [Compound 10, (S)-N-((1H-pyrrolo[2,3-b]pyridin-2-yl)methyl)-7-((9,9-difluoro-9H-fluorene-3-carbonyl)glycyl)-1,4-dioxa-7-azaspiro[4.4]nonane-8-carboxamide]
- IC50: > 1000 nM

SMILES: CS(=O)(=O)[C@@H]1C[C@@H](C(=O)N[C@H](CO)c2cc3cnccc3[nH]2)N(C(=O)CNC(=O)c2ccc3c(c2)Oc2ccccc2S3)C1 [Compound 99, (2S,4R)-N-((S)-2-hydroxy-1-(1H-pyrrolo[3,2-c]pyridin-2-yl)ethyl)-4-(methylsulfonyl)-1-((phenoxathiine-3-carbonyl)glycyl) pyrrolidine-2-carboxamide]
- IC50: < 100 nM

SMILES: O=C(NCC(=O)N1C[C@H](OC(F)F)C[C@H]1C(=O)NCc1cc2cnccc2[nH]1)c1cccc(N2Cc3ccccc3C2)c1 [Compound 378, (2S,4R)-N-((1H-pyrrolo[3,2-c]pyridin-2-yl)methyl)-4-(difluoromethoxy)-1-((3-(isoindolin-2-yl)benzoyl)glycyl)pyrrolidine-2-carboxamide]
- IC50: < 100 nM

SMILES: O=C(NCC(=O)N1C[C@H](OC(F)F)C[C@H]1C(=O)NCc1cc2c(s1)CNCC2)c1ccc2c(c1)Oc1ccccc1S2 [Compound 210, (2S,4R)-4-(difluoromethoxy)-1-((phenoxathiine-3-carbonyl)glycyl)-N-((4,5,6,7-tetrahydrothieno[2,3-c]pyridin-2-yl)methyl)pyrrolidine-2-carboxamide]
- IC50: < 100 nM

SMILES: C[C@@H](NC(=O)[C@@H]1CC2(CN1C(=O)CNC(=O)c1ccc3c(c1)-c1ccccc1C3(F)F)OCCO2)c1cc2cnccc2[nH]1 [Compound 38, (S)-N-((R)-1-(1H-pyrrolo[3,2-c]pyridin-2-yl)ethyl)-7-((9,9-difluoro-9H-fluorene-3-carbonyl)glycyl)-1,4-dioxa-7-azaspiro[4.4]nonane-8-carboxamide]
- IC50: < 100 nM

SMILES: O=C(Cc1ccc(Cl)c(Cl)c1)NCC(=O)N1CC2(C[C@H]1C(=O)NCc1cc3cnccc3[nH]1)OCCO2 [Compound 280, (S)-N-((1H-pyrrolo[3,2-c]pyridin-2-yl)methyl)-7-((2-(3,4-dichlorophenyl)acetyl)glycyl)-1,4-dioxa-7-azaspiro[4.4]nonane-8-carboxamide]
- IC50: 100 to 1000 nM

SMILES: O=C(NCC(=O)N1CC2(C[C@H]1C(=O)NCc1cc3cnccc3s1)OCCO2)c1cccc(Oc2ccccc2)c1 [Compound 256, (S)-7-((3-phenoxybenzoyl)glycyl)-N-(thieno[3,2-c]pyridin-2-ylmethyl)-1,4-dioxa-7-azaspiro[4.4]nonane-8-carboxamide]
- IC50: < 100 nM

SMILES: C[C@@]12C[C@@H]1N(C(=O)CNC(=O)CCCOc1ccccc1)[C@H](C(=O)N[C@H]1CCn3c(CN)ccc31)C2 [Compound 69, (1S,3S,5S)-N-((S)-5-(aminomethyl)-2,3-dihydro-1H-pyrrolizin-1-yl)-5-methyl-2-((4-phenoxybutanoyl)glycyl)-2-azabicyclo[3.1.0]hexane-3-carboxamide]
- IC50: > 1000 nM

SMILES: C[C@@H](NC(=O)[C@@H]1CC(COCCCCN)CN1C(=O)CNC(=O)c1ccc2c(c1)Oc1ccccc1S2)c1cc2cnccc2[nH]1 (stereo partly drawn) [Compound 288, (2S)-N-((R)-1-(1H-pyrrolo[3,2-c]pyridin-2-yl)ethyl)-4-((4-aminobutoxy)methyl)-1-((phenoxathiine-3-carbonyl)glycyl)pyrrolidine-2-carboxamide]
- IC50: < 100 nM

SMILES: O=C(NCC(=O)N1C[C@H](OC(F)F)C[C@H]1C(=O)NCc1cc2cnccc2[nH]1)c1cc2c(cc1F)Sc1ccccc1O2 [Compound 355, (2S,4R)-N-((1H-pyrrolo[3,2-c]pyridin-2-yl)methyl)-4-(difluoromethoxy)-1-((2-fluorophenoxathiine-3-carbonyl)glycyl)pyrrolidine-2-carboxamide]
- IC50: < 100 nM

SMILES: O=C(NCC(=O)N1C[C@H](OC(F)F)C[C@H]1C(=O)NCc1cc2cnccc2[nH]1)c1ccc(F)c(Oc2ccccc2)c1 [Compound 304, (2S,4R)-N-((1H-pyrrolo[3,2-c]pyridin-2-yl)methyl)-4-(difluoromethoxy)-1-((4-fluoro-3-phenoxybenzoyl)glycyl)pyrrolidine-2-carboxamide]
- IC50: < 100 nM

SMILES: C[C@@H](NC(=O)[C@@H]1C[C@@H](S(C)(=O)=O)CN1C(=O)CNC(=O)c1ccc(Oc2ccc(F)cc2)cc1)c1cc2cnccc2[nH]1 [Compound 87, (2S,4R)-N-((R)-1-(1H-pyrrolo[3,2-c]pyridin-2-yl)ethyl)-1-((4-(4-fluorophenoxy)benzoyl)glycyl)-4-(methylsulfonyl)pyrrolidine-2-carboxamide]
- IC50: 100 to 1000 nM

SMILES: O=C(NCC(=O)N1C[C@H](OC(F)F)C[C@H]1C(=O)NCc1cc2cnccc2[nH]1)c1cc(-c2ccccc2)cs1 [Compound 379, (2S,4R)-N-((1H-pyrrolo[3,2-c]pyridin-2-yl)methyl)-4-(difluoromethoxy)-1-((4-phenylthiophene-2-carbonyl)glycyl)pyrrolidine-2-carboxamide]
- IC50: < 100 nM

SMILES: O=C(NCC(=O)N1C[C@H](OC(F)F)C[C@H]1C(=O)NCc1cc2cnccn2c1)c1cccc(Oc2ccc(F)cc2)c1 [Compound 278, (2S,4R)-4-(difluoromethoxy)-1-((3-(4-fluorophenoxy)benzoyl)glycyl)-N-(pyrrolo[1,2-a]pyrazin-7-ylmethyl)pyrrolidine-2-carboxamide]
- IC50: < 100 nM

SMILES: C[C@@H](NC(=O)[C@@H]1C[C@@H](S(C)(=O)=O)CN1C(=O)CNC(=O)c1ccc2c(c1)Oc1ccccc1S2)c1cc2cnccc2[nH]1 [Compound 238, (2S,4R)-N-((R)-1-(1H-pyrrolo[3,2-c]pyridin-2-yl)ethyl)-4-(methylsulfonyl)-1-((phenoxathiine-3-carbonyl)glycyl)pyrrolidine-2-carboxamide]
- IC50: < 100 nM

SMILES: O=C(NCC(=O)N1CC2(C[C@H]1C(=O)NCc1cc3ccccc3[nH]1)OCCO2)c1ccc2c(c1)-c1ccccc1C2(F)F [Compound 3, (S)-N-((1H-indol-2-yl)methyl)-7-((9,9-difluoro-9H-fluorene-3-carbonyl)glycyl)-1,4-dioxa-7-azaspiro[4.4]nonane-8-carboxamide]
- IC50: > 1000 nM

SMILES: O=C(NCC(=O)N1C[C@H](OC(F)F)C[C@H]1C(=O)NCc1cc2cnccc2[nH]1)c1ccc2oc3ccccc3c2c1 [Compound 218, (2S,4R)-N-((1H-pyrrolo[3,2-c]pyridin-2-yl)methyl)-1-((dibenzo[b,d]furan-2-carbonyl)glycyl)-4-(difluoromethoxy)pyrrolidine-2-carboxamide]
- IC50: < 100 nM

SMILES: COC[C@@]1(F)C[C@@H](C(=O)N[C@H](C)c2cc3cnccc3[nH]2)N(C(=O)CNC(=O)c2ccc(-c3ccccc3)cc2)C1 [Compound 83, (2S,4R)-N-((R)-1-(1H-pyrrolo[3,2-c]pyridin-2-yl)ethyl)-1-(([1,1′-biphenyl]-4-carbonyl)glycyl)-4-fluoro-4-(methoxymethyl)pyrrolidine-2-carboxamide]
- IC50: 100 to 1000 nM

SMILES: COc1cccc(C(=O)NCC(=O)N2C[C@H](OC(F)F)C[C@H]2C(=O)NCc2cc3cnccc3[nH]2)c1 [Compound 382, (2S,4R)-N-((1H-pyrrolo[3,2-c]pyridin-2-yl)methyl)-4-(difluoromethoxy)-1-((3-methoxybenzoyl)glycyl) pyrrolidine-2-carboxamide]
- IC50: 100 to 1000 nM

SMILES: O=C(NCC(=O)N1C[C@H](OC(F)F)C[C@H]1C(=O)NCc1ccc2c(c1)CNCC2)c1ccc2c(c1)Oc1ccccc1S2 [Compound 226, (2S,4R)-4-(difluoromethoxy)-1-((phenoxathiine-3-carbonyl)glycyl)-N-((1,2,3,4-tetrahydroisoquinolin-7-yl)methyl)pyrrolidine-2-carboxamide]
- IC50: > 1000 nM

SMILES: Cc1ccc(Oc2cccc(C(=O)NCC(=O)N3C[C@H](OC(F)F)C[C@H]3C(=O)NCc3cc4cnccc4[nH]3)c2)c(F)c1 [Compound 260, (2S,4R)-N-((1H-pyrrolo[3,2-c]pyridin-2-yl)methyl)-4-(difluoromethoxy)-1-((3-(2-fluoro-4-methylphenoxy)benzoyl)glycyl) pyrrolidine-2-carboxamide]
- IC50: < 100 nM

SMILES: O=C(NCC(=O)N1CC2(C[C@H]1C(=O)NCc1cc3cnccc3[nH]1)OCCO2)c1ccc2c(c1)Sc1ccccc1O2 [Compound 24, (S)-N-((1H-pyrrolo[3,2-c]pyridin-2-yl)methyl)-7-((phenoxathiine-2-carbonyl)glycyl)-1,4-dioxa-7-azaspiro[4.4]nonane-8-carboxamide]
- IC50: < 100 nM
